According to paper PMC11363342 (ACS Central Science, 2024):
Entries after “also recorded” stand apart in the source; their conditions may differ.

Assays:
[1] = tested on: SARS-CoV-2; experiment: Viral load reduction assay in ALI-PBEC; type: cell-based; details: ALI-PBEC
Procedure: Thus, ALI-PBEC cells were infected with SARS-CoV-2 (10^5 PFU per insert; estimated MOI ∼0.1) and treated with compounds on the apical side of the cells for 2 h. For uninfected controls, PBS was used instead of virus. The compounds were also present in the basal medium during the whole experiment until 48 hpi, when samples were harvested. […] (Figure 4D).
ALI-PBEC were pretreated with compound in the basal medium for 3 h. Cells were infected with 100 000 PFU of SARS-CoV-2/Leiden0008 per insert (estimated MOI 0.1) with compounds present in the inoculum. After 2 h at 37 °C on a rocking platform, the inoculum was removed and cells were washed three times with warm PBS. Compounds stayed present in the basal medium until 48 h postinfection. At 48 hpi the viral load was determined by plaque assay on a 200 μL apical wash (PBS incubated on the apical side of the insets for 10 min at 37 °C). For assessing cytotoxicity with the CyQuant LDH cytotoxicity assay (Thermo Fisher Scientific), 10 μL of apical wash was diluted 5 times with 40 μL of PBS. A 25 μL volume of this dilution was added to 25 μL of assay reagent and incubated for 30 min at RT in the dark. The plate was fixed and measured at a wavelength of 490 nm (Envision reader, PerkinElmer). For the activity-based probe labeling, the insets were washed one more time with PBS and processed as described previously.[52] Briefly, cells were lysed with 60 μL of potassium phosphate buffer per insert. A fluorescently labeled probe (JJB383) was diluted in MclIvaine buffer (pH 7) to a 10 μM stock and incubated for 5 min on ice. For labeling of the cell lysate, 10 μL of lysate was added to 10 μL of MclIvaine buffer and 5 μL of probe. The lysate was incubated for 30 min at 37 °C before the addition of 10 μL of Laemmli sample buffer (4×). Samples were heated at 95 °C for 5 min and separated in a 10% SDS-PAGE gel. Fluorescence was measured at a wavelength of 625 nm (Cy5) with a Uvitec Alliance Q9 imager (BioSPX). After imaging, the gels were stained with GelCode Blue stain reagent (Thermo Fisher Scientific) and visualized using a Uvitec Essential V6 system to check for equal loading.

[2] = tested on: recombinant Mus musculus α-Glu II; experiment: Thermal shift assay (SYPRO orange); type: binding; details: 10 μM Mmα-Glu-II with 50 μM inhibitor; unliganded control 49.9 °C
[3] = tested on: SARS-CoV-2; experiment: Plaque reduction assay on H1299/ACE2 cells (time of treatment); type: cell-based
Procedure: To evaluate whether compound 11 has an effect on host proteins (for instance, ACE2) involved in viral entry, we treated monolayers of H1299/ACE2 cells with compound 11 either 48 or 2 h before infection, during infection (0–1 h), or starting from 1 h postinfection (hpi). The cell monolayers were infected with ∼20 PFU of SARS-CoV-2, and after 1 h the inoculum was replaced with an overlay. In one well (Post Infection) the overlay contained compound 11. Remdesivir, a viral RNA synthesis inhibitor, was added to the overlay of another well, as a positive control for blocking virus replication in the cell.
H1299/ACE2 cells were seeded in a 6-well plate at a density of 1.3 × 10^5 cells/well (20% confluency), 96 h prior to infection. […] The monolayers were infected with ∼20 PFU of SARS-CoV-2/Leiden0008. In the postinfection treatment, the compound (or RDV) was added to the Avicel overlay. Cells were incubated for 4 days at 37 °C before fixation and crystal violet staining.

[4] = tested on: HCoV-229E; type: cell-based
[5] = in vitro; details: African green monkey
[6] = tested on: SARS-CoV-2 S protein; type: cell-based
[7] = tested on: GBA2; details: cited from earlier work
[8] = tested on: ER α-Glu II (GANAB); experiment: Competitive activity-based protein profiling with ABP 29 in ALI-PBEC lysate, GANAB; type: cell-based, human
[9] = tested on: GCS; parameters: method as in PMID 28776021; details: cited from earlier work
[10] = tested on: SARS-CoV-2 S protein; type: cell-based; remark: listed apart in the source
[11] = tested on: SARS-CoV-2; type: cell-based
[12] = tested on: GBA3; details: cited from earlier work
[13] = target: GAA (Homo sapiens, UniProt P10253); experiment: Competitive activity-based protein profiling with ABP 29 in ALI-PBEC lysate, GAA; type: cell-based; details: pH 7, 48 hpi
[14] = tested on: SARS-CoV-2; experiment: Virucidal activity assay; details: virus incubated 1 h; compound 11 at 50 μM
[15] = tested on: MERS-CoV; type: cell-based; details: HuH-7, MOI 1, 16 hpi, increasing concentrations
[16] = tested on: GBA1; details: cited from earlier work
[17] = tested on: SARS-CoV; type: cell-based; details: Vero E6, MOI 1, 16 hpi, increasing concentrations
[18] = tested on: SARS-CoV-2; experiment: CPE reduction assay on H1299/ACE2 lung epithelial cells; type: cell-based; details: compared with Vero E6
[19] = tested on: SARS-CoV-2; experiment: Viral load reduction assay on H1299/ACE2 cells, extracellular viral RNA copies by RT-qPCR; type: cell-based
[20] = tested on: SARS-CoV-2; experiment: microbe, parasite or virus in culture; type: cell-based; details: Severe acute respiratory syndrome coronavirus 2, Vero C1008, Vero E6 cells, SARS-CoV-2/Leiden0002, n = 3, mean ± SEM; read-out: EC50 (μM), SARS-CoV-2 CPE reduction

SMILES: O=S1(=O)O[C@@H]2[C@H](O)[C@@H](O)[C@H](O)[C@@H](CO)[C@@H]2O1 [Compound 11, 1,6-epi-cyclophellitol cyclosulfate]
- concentration at which the maximum antiviral effect was reached [1]: 0.5 µM
- reduction of viral load vs untreated control ([1]; 0.5 μM, 48 hpi): up to 100 fold
- reduction of infectious virus titers ([1]; 0.5–1.6 μM): up to 2 logs
- Tm/°C [2]: 63.3 °C
- plaque formation, pretreatment or treatment only during infection ([3]; H1299/ACE2, 5 μM, 48 or 2 h before or 0–1 h): had no effect on the number of plaques that developed or their morphology
- plaque formation, treatment after infection (in the overlay) ([3]; H1299/ACE2, compound 11 at 5 μM): prevented the formation of plaques
- virus infectivity of HCoV-229E (in words) [4]: did not show any reduction in virus infectivity
- CC50 at 3 days [5]: > 200000 nM
- (processed) S2 in the medium [6]: strongly reduced
- full-length S protein in the cell lysate [6]: minor reduction
- ∼90 kDa S2 fragment in the cell lysate [6]: almost complete disappearance
- inhibition of GBA2 [7]: completely inactive; also recorded: does not inhibit
- ER α-Glu II inhibition in ALI-PBEC (in words) ([8]; 0.5 μM): almost full inhibition
- in cellulo ER α-Glu II inhibition by ABP 29 labeling (in words) ([8]; pH 7): most efficient in inhibiting ER α-Glu II and GAA at low concentrations
- inhibition of GCS [9]: does not inhibit
- S protein in infected cells (immunofluorescence) [10]: reduction in the amount of S protein
- syncytium formation [10]: reduced syncytium formation
- concentration at which the inhibitory effect reached a plateau [11]: 1.6 µM
- reduction of the infectious progeny virus titer [11]: 100 fold
- specific infectivity (infectious particles per viral RNA copy) ([11]; H1299/ACE2, 1.5 μM compound): decrease in specific infectivity
- inhibition of GBA3 [12]: does not inhibit
- in cellulo GAA inhibition by ABP 29 labeling (in words) [13]: most efficient in inhibiting ER α-Glu II and GAA at low concentrations
- virucidal effect on infectious titer [14]: no effect on the infectious titer
- infectious progeny of MERS-CoV (in words) [15]: significant reduction of infectious progeny
- inhibition of GBA1 [16]: completely inactive; also recorded: does not inhibit
- infectious progeny of SARS-CoV (in words) [17]: significant reduction of infectious progeny
- EC50 values in CPE reduction assay (in words) [18]: comparable EC50 values
- extracellular viral RNA copy numbers (in words) [19]: only slightly reduced
- EC50 [20]: 0.48 ± 0.1 µM
